Results taken from PubChem BioAssay (NCI).
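Step 1: Grow cells in 96-well plates. Step 2: Expose to compound for 48 hours at 5 concentrations. Step 3: Interpolate endpoints linearly; if unreached, use highest concentration. At the TGI there is no net growth.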

Key:
Assay in all cases: NCI tumour cell line growth inhibition, 48 h
DMS 273 small cell lung = system: DMS 273 small cell lung
HCT-116 colon = system: HCT-116 colon
KM20L2 colon = system: KM20L2 colon
HCT-15 colon = system: HCT-15 colon
ACHN renal = system: ACHN renal
COLO 205 colon = system: COLO 205 colon
A549 NSCLC = system: A549 NSCLC
LXFL 529 NSCLC = system: LXFL 529 NSCLC
KM12 colon = system: KM12 colon
CCRF-CEM leukemia = system: CCRF-CEM leukemia
HOP-62 NSCLC = system: HOP-62 NSCLC
SN12C renal = system: SN12C renal
SF-268 CNS = system: SF-268 CNS
NCI-H226 lung = system: NCI-H226 lung
SNB-19 CNS = system: SNB-19 CNS
NCI-H23 lung = system: NCI-H23 lung
UACC-257 melanoma = system: UACC-257 melanoma
HCC-2998 colon = system: HCC-2998 colon
SK-MEL-28 melanoma = system: SK-MEL-28 melanoma
SF-295 CNS = system: SF-295 CNS
OVCAR-5 ovarian = system: OVCAR-5 ovarian
HOP-18 NSCLC = system: HOP-18 NSCLC
786-0 renal = system: 786-0 renal
SK-MEL-2 melanoma = system: SK-MEL-2 melanoma
K-562 leukemia = system: K-562 leukemia
OVCAR-3 ovarian = system: OVCAR-3 ovarian
SK-MEL-5 melanoma = system: SK-MEL-5 melanoma
UACC-62 melanoma = system: UACC-62 melanoma
OVCAR-8 ovarian = system: OVCAR-8 ovarian
SW-620 colon = system: SW-620 colon
NCI-H522 lung = system: NCI-H522 lung
U251 CNS = system: U251 CNS
RXF-631 renal = system: RXF-631 renal
NCI-H460 lung = system: NCI-H460 lung
LOX IMVI melanoma = system: LOX IMVI melanoma
HT29 colon = system: HT29 colon
RPMI-8226 leukemia = system: RPMI-8226 leukemia
DLD-1 colon = system: DLD-1 colon
CAKI-1 renal = system: CAKI-1 renal
SF-539 CNS = system: SF-539 CNS
RXF 393 renal = system: RXF 393 renal
SR leukemia = system: SR leukemia
HOP-92 NSCLC = system: HOP-92 NSCLC
HL-60(TB) leukemia = system: HL-60(TB) leukemia
SK-OV-3 ovarian = system: SK-OV-3 ovarian
IGROV1 ovarian = system: IGROV1 ovarian
TK-10 renal = system: TK-10 renal
MOLT-4 leukemia = system: MOLT-4 leukemia
EKVX NSCLC = system: EKVX NSCLC
MALME-3M melanoma = system: MALME-3M melanoma
M19-MEL melanoma = system: M19-MEL melanoma

Measured: TGI

COC(=O)c1ccc(Cc2ccc(C(=O)OC)o2)o1
> 378 µM: all assays above
